Data published in ChEMBL document CHEMBL5104113, “Biophysical Survey of Small-Molecule β-Catenin Inhibitors: A Cautionary Tale” (J Med Chem, 2022).
pIC50, pKd, pKi: −log10 of the molar value.

Columns and labels:
[1] = molecular target: T1, Catenin beta-1 (Homo sapiens) (UniProt P35222); conditions: dose 125.0 µM
T1 sequence (whole entry): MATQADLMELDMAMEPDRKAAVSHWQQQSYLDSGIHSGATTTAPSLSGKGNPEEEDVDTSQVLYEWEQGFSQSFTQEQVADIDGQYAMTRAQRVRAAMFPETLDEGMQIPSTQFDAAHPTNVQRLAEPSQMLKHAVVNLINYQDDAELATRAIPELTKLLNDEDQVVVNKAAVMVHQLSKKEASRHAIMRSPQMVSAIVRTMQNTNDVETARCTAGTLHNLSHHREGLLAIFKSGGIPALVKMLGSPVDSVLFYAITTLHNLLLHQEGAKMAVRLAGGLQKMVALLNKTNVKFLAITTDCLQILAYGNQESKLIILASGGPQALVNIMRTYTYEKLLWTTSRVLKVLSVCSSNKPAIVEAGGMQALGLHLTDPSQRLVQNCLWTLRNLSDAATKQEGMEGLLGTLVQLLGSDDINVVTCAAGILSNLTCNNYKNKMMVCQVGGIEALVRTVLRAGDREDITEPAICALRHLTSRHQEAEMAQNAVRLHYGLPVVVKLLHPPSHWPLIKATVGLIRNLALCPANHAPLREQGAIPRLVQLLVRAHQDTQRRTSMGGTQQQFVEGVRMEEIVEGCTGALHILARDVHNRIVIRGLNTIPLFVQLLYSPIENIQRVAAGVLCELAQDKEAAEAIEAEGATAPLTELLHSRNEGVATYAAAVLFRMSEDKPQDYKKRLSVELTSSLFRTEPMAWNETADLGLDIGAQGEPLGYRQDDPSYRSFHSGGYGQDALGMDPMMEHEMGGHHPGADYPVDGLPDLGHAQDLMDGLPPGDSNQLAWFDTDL
Description: Thermal stabilization of wildtype beta catenin ARD (148 to 662 residues) (unknown origin) assessed as change in melting temperature at 125 uM by DSF method

[2] = Downregulation of c-Myc protein expression level in human PANC-1 cells; format: functional, cell-based
[3] = Downregulation of c-Myc protein expression level in human ASPC1 cells; format: functional, cell-based
Catenin beta-1 [4] = molecular target: T2, Catenin beta-1 (Homo sapiens, UniProt P35222)
T2 sequence (P35222 whole entry): T1 sequence (whole entry)
Description: Binding affinity to beta catenin ARD (142 to 686 residues) (unknown origin) assessed as inhibition constant by fluorescence polarisation assay

[5] = molecular target: T1, Catenin beta-1 (Homo sapiens)
Description: Binding affinity to beta catenin ARD (142 to 686 residues) (unknown origin) assessed as change in entropy by VP-ITC method

HCT-116 [6] = assay: Cytotoxicity against human HCT-116 cells assessed as cell viability incubated for 72 hrs by cell titre glo assay; format: functional, cell-based; conditions: HCT-116, 72 h
SW-620 = assay: Cytotoxicity against human SW-620 cells assessed as cell viability incubated for 72 hrs by cell titre glo assay; format: functional, cell-based; conditions: SW-620, 72 h
SW480 [7] = assay: Cytotoxicity against human SW480 cells assessed as cell viability incubated for 72 hrs by cell titre glo assay; format: functional, cell-based; conditions: SW480, 72 h
Catenin beta-1 [8] = molecular target: T2, Catenin beta-1; assay: Binding affinity to N-terminal FLAG tagged beta catenin alpha helix (H1 - 141 to 149 aa) of armadillo repeat domain (unknown origin) by STD/HSQC based NMR analysis
[9] = molecular target: T3, beta-catenin-B-cell lymphoma 9 protein complex (Homo sapiens, UniProt P35222); assay: Binding affinity to N-terminal FLAG tagged beta catenin (134 to 671 residues)/FLAG tagged BCL9 domain 2 (343 to 396 residues) (unknown origin) protein protein interaction assessed as inhibition constant; format: protein-complex assay
T3 sequence (P35222 whole entry): T1 sequence (whole entry)
T3 sequence (O00512 whole entry): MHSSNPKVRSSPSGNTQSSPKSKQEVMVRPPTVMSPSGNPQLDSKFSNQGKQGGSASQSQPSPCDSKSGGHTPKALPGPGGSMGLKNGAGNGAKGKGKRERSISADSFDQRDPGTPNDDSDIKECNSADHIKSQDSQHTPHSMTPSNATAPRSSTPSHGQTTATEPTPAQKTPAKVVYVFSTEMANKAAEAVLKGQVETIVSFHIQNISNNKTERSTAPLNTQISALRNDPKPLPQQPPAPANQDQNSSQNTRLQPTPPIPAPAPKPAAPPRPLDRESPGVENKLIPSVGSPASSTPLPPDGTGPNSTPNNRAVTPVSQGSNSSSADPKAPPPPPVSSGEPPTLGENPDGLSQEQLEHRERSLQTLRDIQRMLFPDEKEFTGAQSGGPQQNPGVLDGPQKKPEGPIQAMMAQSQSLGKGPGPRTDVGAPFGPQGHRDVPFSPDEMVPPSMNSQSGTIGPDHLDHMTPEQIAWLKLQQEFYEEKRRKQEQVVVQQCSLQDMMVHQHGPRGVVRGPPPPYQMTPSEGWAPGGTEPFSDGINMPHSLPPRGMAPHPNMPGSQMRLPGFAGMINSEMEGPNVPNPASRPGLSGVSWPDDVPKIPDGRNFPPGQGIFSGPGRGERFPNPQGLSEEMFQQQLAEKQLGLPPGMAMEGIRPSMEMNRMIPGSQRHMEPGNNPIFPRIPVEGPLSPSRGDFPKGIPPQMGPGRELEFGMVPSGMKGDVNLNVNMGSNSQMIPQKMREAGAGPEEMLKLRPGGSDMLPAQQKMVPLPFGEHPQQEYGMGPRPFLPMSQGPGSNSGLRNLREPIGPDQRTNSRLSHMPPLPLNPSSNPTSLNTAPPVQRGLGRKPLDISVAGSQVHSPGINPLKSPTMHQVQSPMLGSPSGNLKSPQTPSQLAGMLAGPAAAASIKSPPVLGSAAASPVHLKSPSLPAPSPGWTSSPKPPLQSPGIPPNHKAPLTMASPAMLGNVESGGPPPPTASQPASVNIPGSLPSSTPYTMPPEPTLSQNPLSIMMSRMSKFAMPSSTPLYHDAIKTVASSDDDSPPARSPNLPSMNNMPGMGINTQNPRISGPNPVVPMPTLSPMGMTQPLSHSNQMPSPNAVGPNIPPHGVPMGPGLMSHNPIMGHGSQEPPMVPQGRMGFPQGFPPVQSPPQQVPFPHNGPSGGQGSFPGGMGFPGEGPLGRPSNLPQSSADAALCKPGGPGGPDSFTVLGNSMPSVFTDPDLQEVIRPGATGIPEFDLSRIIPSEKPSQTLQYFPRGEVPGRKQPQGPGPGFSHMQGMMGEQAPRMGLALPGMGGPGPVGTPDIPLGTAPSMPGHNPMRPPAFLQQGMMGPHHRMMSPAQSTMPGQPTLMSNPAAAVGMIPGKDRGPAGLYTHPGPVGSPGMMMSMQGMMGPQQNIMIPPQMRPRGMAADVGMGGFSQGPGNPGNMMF

[10] = Inhibition of Wnt/beta-catenin (unknown origin) transcriptional activity pathway transfected human H1299 cells by measuring luciferase activity after 24 hrs by TOP-flash luciferase reporter gene assay; format: cell-based; conditions: nci-h1299
TCF4-CTNNB1 complex = molecular target: T4, TCF4-CTNNB1 complex (Homo sapiens, UniProt P35222+Q9NQB0); assay: Inhibition of beta catenin/recombinant GST tagged Tcf4 protein protein interaction in human HCT-116 cells; format: cell-based
T4 sequence (P35222 whole entry): T1 sequence (whole entry)
T4 sequence (P15884 whole entry): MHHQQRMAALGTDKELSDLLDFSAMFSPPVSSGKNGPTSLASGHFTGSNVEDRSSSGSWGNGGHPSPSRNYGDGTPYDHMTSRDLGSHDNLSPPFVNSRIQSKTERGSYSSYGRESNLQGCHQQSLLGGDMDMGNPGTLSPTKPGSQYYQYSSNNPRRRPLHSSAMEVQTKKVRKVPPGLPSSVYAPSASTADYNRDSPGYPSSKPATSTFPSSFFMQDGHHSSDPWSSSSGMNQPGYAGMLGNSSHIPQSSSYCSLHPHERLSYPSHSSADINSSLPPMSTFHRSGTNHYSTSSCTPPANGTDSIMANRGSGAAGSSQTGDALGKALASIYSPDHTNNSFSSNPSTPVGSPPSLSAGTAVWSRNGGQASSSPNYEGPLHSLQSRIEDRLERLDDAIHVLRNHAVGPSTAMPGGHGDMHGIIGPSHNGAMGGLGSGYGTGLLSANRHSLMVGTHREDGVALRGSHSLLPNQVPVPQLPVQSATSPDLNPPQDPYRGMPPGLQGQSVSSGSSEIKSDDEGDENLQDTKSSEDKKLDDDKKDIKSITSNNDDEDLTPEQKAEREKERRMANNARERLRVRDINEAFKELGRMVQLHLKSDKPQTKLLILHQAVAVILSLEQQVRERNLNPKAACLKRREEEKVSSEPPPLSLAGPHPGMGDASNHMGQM

A549 = assay: Antiproliferative activity against human A549 cells expressing wnt2 incubated for 72 hrs by celltitre 96 non-radioactive cell proliferation assay kit; format: functional, cell-based; conditions: A549, 72 h
Catenin beta-1 [11] = molecular target: T2, Catenin beta-1; assay: Inhibition of beta catenin in HEK293 cells by TOPflash luciferase reporter assay; format: cell-based
[12] = Inhibition of Tcf in HEK293 cells by TOPflash luciferase reporter assay; format: cell-based; conditions: Homo sapiens
[13] = molecular target: Poly(ADP-ribose) glycohydrolase (Homo sapiens, UniProt Q86W56); assay: Binding affinity to human PARG assessed as dissociation constant by SPR analysis
SW480 [14] = assay: Inhibition of cell growth in human SW480 cells incubated for 24 hrs by WST-1 assay; format: functional
HCT-116 [15] = assay: Inhibition of cell growth in human HCT-116 cells incubated for 24 hrs by WST-1 assay; format: functional

Chain of Poly(ADP-ribose) glycohydrolase (Q86W56 whole entry): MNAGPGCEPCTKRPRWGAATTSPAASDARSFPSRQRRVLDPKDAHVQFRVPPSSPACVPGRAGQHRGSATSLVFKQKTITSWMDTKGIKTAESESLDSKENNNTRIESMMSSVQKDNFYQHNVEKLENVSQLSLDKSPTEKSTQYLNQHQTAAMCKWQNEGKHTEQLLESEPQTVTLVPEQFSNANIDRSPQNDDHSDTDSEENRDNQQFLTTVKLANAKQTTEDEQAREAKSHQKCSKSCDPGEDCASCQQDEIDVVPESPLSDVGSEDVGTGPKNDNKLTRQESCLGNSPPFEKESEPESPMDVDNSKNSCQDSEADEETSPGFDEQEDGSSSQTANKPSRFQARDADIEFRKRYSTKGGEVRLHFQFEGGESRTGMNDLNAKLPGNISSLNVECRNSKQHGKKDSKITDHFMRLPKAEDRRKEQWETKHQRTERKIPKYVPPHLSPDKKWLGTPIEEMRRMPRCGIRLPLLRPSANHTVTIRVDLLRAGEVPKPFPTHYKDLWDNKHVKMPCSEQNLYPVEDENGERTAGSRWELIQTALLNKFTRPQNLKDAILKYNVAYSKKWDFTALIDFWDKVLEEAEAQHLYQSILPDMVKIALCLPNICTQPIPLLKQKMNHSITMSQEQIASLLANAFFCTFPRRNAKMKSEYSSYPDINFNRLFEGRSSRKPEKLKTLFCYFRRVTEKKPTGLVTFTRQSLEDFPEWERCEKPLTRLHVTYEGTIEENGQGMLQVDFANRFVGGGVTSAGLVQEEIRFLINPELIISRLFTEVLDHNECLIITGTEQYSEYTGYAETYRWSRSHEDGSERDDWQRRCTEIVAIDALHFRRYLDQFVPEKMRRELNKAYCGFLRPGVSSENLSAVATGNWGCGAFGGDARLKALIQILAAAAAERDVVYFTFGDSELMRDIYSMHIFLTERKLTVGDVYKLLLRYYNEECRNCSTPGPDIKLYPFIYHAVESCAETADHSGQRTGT

## O=C(O)c1ccccc1Oc1ccccc1
[1]
  ΔTm: -0.1 °C

## COc1ccc2[nH]c3c(-c4cccc5ccccc45)nccc3c2c1
[2]
  pIC50: > 6.30
[3]
  pIC50: > 6.30
[1]
  ΔTm: -0.9 °C

## O=C(Nc1ccc(O[C@H]2CCNC2)c(-c2ccc(F)cc2)c1)c1ccc(O[C@@H]2CCNC2)c(-c2ccc(F)c(F)c2)c1
[1]
  ΔTm: -0.5 °C

## On1ncc2cc(CCc3nn[nH]n3)ccc21
Catenin beta-1 [4]
  pKi: 5.52
[5]
  -TdeltaS: -7.89 kcal/mol

## c1ccc(CCNc2nc(N3CCCCC3)nc3ccccc23)cc1
HCT-116 [6]
  pIC50: 5.21
SW-620
  pIC50: 5.17
[1]
  ΔTm: -0.6 °C
SW480 [7]
  pIC50: 5.23

## Cc1ccc(S(=O)(=O)Nc2cccc(C(=O)O)c2)cc1
[1]
  ΔTm: -0.5 °C

## COc1cccc(/C=C2/SC(=S)N(CCC(=O)O)C2=O)c1OC
[1]
  ΔTm: -0.5 °C

## CC(C)c1cc2c(c(O)c1O)[C@@]1(C(=O)O)CCCC(C)(C)[C@@H]1CC2 [CARNOSIC ACID]
Catenin beta-1 [8]
  pKd: 4.70
[1]
  ΔTm: -2.7 °C
[9]
  pKi: 5.52

## O=C1C(Cl)=C(Nc2ccc(S(=O)(=O)Nc3ccccn3)cc2)C(=O)c2ccccc21
[10]
  pIC50: 5.64

## Cc1ccc(/C=N/NC(=O)c2ccccc2Oc2ccccc2)o1
[1]
  ΔTm: -0.5 °C

## COc1c(C[C@H](C)OC(=O)Oc2ccc(O)cc2)c2c3c(C[C@H](C)OC(=O)c4ccccc4)c(OC)c(=O)c4c(O)cc(OC)c(c5c(OC)cc(O)c(c1=O)c52)c43
TCF4-CTNNB1 complex
  pIC50: 5.00

## COc1c(C[C@H](C)OC(=O)c2c(C)cc(O)cc2O)c2c3c(C[C@H](C)OC(=O)c4c(C)cc(O)cc4O)c(OC)c(=O)c4c(O)cc(OC)c(c5c(OC)cc(O)c(c1=O)c52)c43
TCF4-CTNNB1 complex
  pIC50: 5.00

## COC(=O)c1cccc(NS(=O)(=O)c2ccc(C)cc2)c1
[1]
  ΔTm: -0.5 °C

## Fc1ccc2nc(OCCN3CCCC3)c(C#Cc3ccccc3)nc2c1
A549
  pIC50: 5.00
[1]
  ΔTm: 0.1 °C

## Cn1ncnc2c(=O)n(C)c(=O)nc1-2
[1]
  ΔTm: -0.5 °C

## CN(C)c1ccc(-c2nc3cc(F)ccc3[nH]2)cc1
[1]
  ΔTm: -0.1 °C

## CCc1cccc2c3c([nH]c12)[C@@](CC)(CC(=O)O)OCC3 [SDX-101]
Catenin beta-1 [11]
  pIC50: 3.17
[1]
  ΔTm: -0.5 °C
[12]
  pIC50: 4.34

## CN(C)CCOc1nc2ccccc2nc1C#Cc1ccccc1
[1]
  ΔTm: 0 °C

## O=C(O)c1ccccc1-c1c2ccc(=O)cc-2oc2cc(O)ccc12
[1]
  ΔTm: 0.1 °C

## CC(C)(C)NS(=O)(=O)c1ccc2c(c1)C(=O)c1ccccc1C2=O
[13]
  pKd: 8.84

## O=C(CN1C2=NCCN2c2ccccc21)c1ccc(-c2ccccc2)cc1
SW480 [14]
  GI50: 13.2 µM
[1]
  ΔTm: -0.1 °C
HCT-116 [15]
  GI50: 13.9 µM

## Cc1cc(Cl)ccc1/N=C\c1ccc(F)c(Oc2ccccc2)c1
[1]
  ΔTm: 0.1 °C

## Cc1ccc2nc(N(C)C)nc(NCc3ccc(C(=O)NCc4ccc(F)cc4)cc3)c2c1
[1]
  ΔTm: -0.7 °C

## CCc1ccc(-c2nc(CSCC(=O)NCCc3ccccc3)c(C)o2)cc1
[1]
  ΔTm: -0.7 °C
